Measurements from publication PMC5572576 (The Lancet. Oncology, 2017).

Test: Plasma pharmacokinetics after oral once-daily dosing
Type: in vivo, human
Details: oral daily dosing 20–450 mg

SMILES: CCc1nc(C(N)=O)c(Nc2ccc(N3CCC(N4CCN(C)CC4)CC3)c(OC)c2)nc1NC1CCOCC1 [gilteritinib]
- Steady state plasma levels reached: 15 treatment Day
